The record followed here is ChEMBL document CHEMBL5046288, “Design, Synthesis, and Bioevaluation of 2-Aminopteridin-7(8H)-one Derivatives as Novel Potent Adenosine A2A Receptor Antagonists for Cancer Immunotherapy” (J Med Chem, 2022).

By IC50 is commonly meant the concentration at which inhibition is half-maximal. One may read the half-life as the time in which the quantity being followed falls by half.

Data set [1] deals with T1, Adenosine receptor A2a (Homo sapiens, UniProt P29274). Nature of the data set: Antagonist activity at human A2aR expressed in HEK293 cells assessed as reduction in cAMP production incubated for 60 mins by ultra LANCE cAMP detection assay. It counts as functional, cell-based. In general terms: Cyclic AMP is a second messenger, typically raised through Gs and lowered through Gi signalling.

The nature of data set [2]: Metabolic stability in mouse liver microsomes assessed as half life at […] measured up to 60 mins in presence of NADPH by HPLC-MS/MS analysis. Format: ADME, Microsome. A general note: Microsomes from liver hold many membrane-bound enzymes, among them those of drug oxidation.
Data set [3] can be described thus: Upregulation of NECA-suppressed IL-2 protein level in Ion/PMA-activated human Jurkat T cells at 10 uM by Western blotting analysis. Format: functional. Background: A western blot detects proteins with antibodies after separation by electrophoresis.
Data set [4] has as its target T1, Adenosine receptor A2a. The data set can be described thus: Antagonist activity at human A2aR expressed in HEK293 cells assessed as reduction in NECA-induced cAMP production incubated for 20 mins in presence of 20 nM NECA by GloSensor cAMP detection assay. Format: functional, cell-based.
Data set [5] is filed under the species Homo sapiens. The data set can be described thus: Selectivity ratio of IC50 for human A1R to IC50 for human A2aR.
For data set [6], the species on record is Homo sapiens. The data set can be described thus: Selectivity ratio of IC50 for human A2BR to IC50 for human A2aR.
Data set [7] is filed under the species Homo sapiens. Nature of the data set: Selectivity ratio of IC50 for human A3R to IC50 for human A2aR.
The target of data set [8] is T1, Adenosine receptor A2a. The data set can be described thus: Antagonist activity at human A2aR expressed in HEK293 cells assessed as reduction in NECA-induced cAMP production incubated for 20 mins in presence of 40 nM NECA by ultra LANCE cAMP detection assay. It counts as functional, cell-based.
Data set [9] deals with T1, Adenosine receptor A2a. The data set can be described thus: Antagonist activity at human A2aR expressed in HEK293 cells assessed as reduction in NECA-induced cAMP production incubated for 20 mins in presence of 1 uM NECA by ultra LANCE cAMP detection assay. Format: functional, cell-based.
Data set [10] deals with Jurkat. The data set can be described thus: Upregulation of NECA-suppressed IL-2 mRNA level in Ion/PMA-activated human Jurkat T cells at 10 uM by Q-PCR analysis. It counts as functional, cell-based.
For data set [11], the system named is HCT-116. Nature of the data set: Cytotoxicity against human HCT-116 cells co-cultured with Ion/PMA-activated human Jurkat T cells assessed as reversal of NECA-induced suppression of cytotoxic function of Jurkat T cell by measuring survival rate at E:T ratio of 6:1 at 10 uM measured after 48 hrs by crystal violet staining based colony assay. Format: functional.

In data set [12] the test system is HCT-116. Nature of the data set: Cytotoxicity against human HCT116 cells assessed as reduction in cell viability incubated for 24 hrs by MTS assay. The note with it: hct-116, 24 h. Format: toxicity, cell-based.
For data set [13], the system named is MC-38. The data set can be described thus: Cytotoxicity against mouse MC38 cells assessed as reduction in cell viability incubated for 24 hrs by MTS assay. It counts as toxicity, cell-based. The settings on record: mc-38, 24 h.

Molecules are shown by their SMILES. Activity calls are given as the source filed them. The calls are words filed in the database; no cut-off is given here.

T1 sequence (P29274 whole entry): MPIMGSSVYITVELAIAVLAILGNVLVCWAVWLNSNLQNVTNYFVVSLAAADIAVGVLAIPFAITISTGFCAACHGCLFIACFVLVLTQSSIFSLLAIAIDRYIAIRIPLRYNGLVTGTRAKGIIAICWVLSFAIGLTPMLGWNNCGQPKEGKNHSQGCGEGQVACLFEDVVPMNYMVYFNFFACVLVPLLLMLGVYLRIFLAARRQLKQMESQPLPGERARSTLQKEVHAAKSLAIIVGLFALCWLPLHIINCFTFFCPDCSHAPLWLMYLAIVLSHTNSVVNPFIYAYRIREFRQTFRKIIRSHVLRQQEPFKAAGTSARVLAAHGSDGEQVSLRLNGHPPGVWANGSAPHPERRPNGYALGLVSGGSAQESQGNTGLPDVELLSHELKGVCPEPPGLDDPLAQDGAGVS

For `Cc1ccc(-c2nc(N)nc3c2ncc(=O)n3CCN2CCN(c3cccc(F)c3)CC2)o1`, the IC50 in [1] was 57.5 nM. Still for that read-out and setting: the result for `COc1ccc(N2CC3CCC(C2)N3CCn2c(=O)cnc3c(-c4ccc(C)o4)nc(N)nc32)cc1` reads 555 nM.

As to `COCCOc1ccc(N2CCN(CCn3c(=O)cnc4c(-c5ccc(C)o5)nc(N)nc43)CC2)cc1`, the IC50 in data set [1] was 23.8 nM.

For `COc1ccc(N2CCN(CCn3c(=O)cnc4c(-c5ccc(C)o5)nc(N)nc43)CC2)nc1`, the IC50 in data set [1] is 213 nM. Still for that read-out and setting: the value for `Cc1ccc(-c2nc(N)nc3c2ncc(=O)n3CCN2CCN(C)CC2)o1` was > 10000 nM; that for `Cc1ccc(-c2nc(N)nc3c2ncc(=O)n3CCN2CCN(c3ccccc3F)CC2)o1` was 11.7 nM; that for `Cc1ccc(-c2nc(N)nc3c2ncc(=O)n3CCN2CCN(c3ccc(OC(F)(F)F)cc3)CC2)o1` was 120 nM. Same read-out and setting: the result for `Cc1ccc(-c2nc(N)nc3c2ncc(=O)n3CCN2CCN(c3ccc(C(F)(F)F)cc3)CC2)o1` reads 176 nM. The same measure, in the same setting: the value for `COc1ccccc1N1CCN(CCn2c(=O)cnc3c(-c4ccc(C)o4)nc(N)nc32)CC1` was 3810 nM; that for `Cc1ccc(-c2nc(N)nc3c2ncc(=O)n3CCN2CCN(C3CCCC3)CC2)o1` was > 10000 nM. Turning to `COc1ccc(N2CCN(CCn3c(=O)cnc4c(-c5ccc(C)o5)nc(N)nc43)CC2)c(F)c1`, in data set [1], the IC50 was 4.9 nM. In [2], the half-life worked out at 5.1 min. For the compound `COc1ccc(N2C[C@H](C)N(CCn3c(=O)cnc4c(-c5ccc(C)o5)nc(N)nc43)C[C@H]2C)cc1`, the IC50 in [1] is 2020 nM. Regarding `Cc1ccc(-c2nc(N)nc3c2ncc(=O)n3CCN2CCN(c3cccc(OC(F)(F)F)c3)CC2)o1`, the IC50 in data set [1] is > 10000 nM. As for `COc1ccc(N2CCN(CCn3c(=O)cnc4c(-c5ccc(C)o5)nc(N)nc43)C[C@H]2C)cc1`, the IC50 in data set [1] was 37.5 nM. On the same count and under the same terms, the value for `Cc1ccc(-c2nc(N)nc3c2ncc(=O)n3CC2CC2)o1` was 1010 nM. Take `COc1ccc(N2CCN(CCn3c(=O)cnc4c(-c5ccc(C)o5)nc(N)nc43)[C@@H](C)C2)c(F)c1`: in data set [3], the “fold change (FC)” value was found to be 3.77. The IC50 was 6.6 nM in [4], 8.3 nM in data set [1], 8.3 nM in [8] and 180 nM in data set [9]. For the same compound, the Ratio IC50 in data set [5], in data set [6] and in data set [7] was > 1000 throughout. Besides, in [10], the outcome was inactive. Also, in data set [2], the half-life was found to be 38.5 min. In addition, the values for the Activity in [11], in data set [12] and in data set [13] were 48.6%, “Non-Toxic” and “Non-Toxic”, respectively.

Regarding `COc1ccc(N(C)C2CN(CCn3c(=O)cnc4c(-c5ccc(C)o5)nc(N)nc43)C2)cc1`, the 50% inhibitory concentration (IC50) in data set [1] is > 10000 nM. The same measure, in the same setting: the value for `COCCOc1ccc(N2CCN(CCn3c(=O)cnc4c(-c5ccc(C)o5)nc(N)nc43)CC2)c(F)c1F` was 9.3 nM; that for `Cc1ccc(-c2nc(N)nc3c2ncc(=O)n3CCCc2ccccc2)o1` was 712 nM.

As for `Cc1ccc(-c2nc(N)nc3c2ncc(=O)n3CCN2CCN(c3ccc(F)cc3)CC2)o1`, the IC50 in data set [1] is 58.8 nM. Same read-out and setting: the result for `Cc1ccc(-c2nc(N)nc3c2ncc(=O)n3Cc2ccco2)o1` reads 2170 nM; that for `Cc1ccc(-c2nc(N)nc3c2ncc(=O)n3CCCCc2ccccc2)o1`, 980 nM. As to `COc1ccc(N2C[C@@H]3C[C@H]2CN3CCn2c(=O)cnc3c(-c4ccc(C)o4)nc(N)nc32)cc1`, the IC50 in data set [1] was > 10000 nM. As to `COc1cnc(N2CCN(CCn3c(=O)cnc4c(-c5ccc(C)o5)nc(N)nc43)CC2)c(F)c1`, in data set [1], the IC50 came to 5.5 nM. Still for that read-out and setting: the result for `Cc1ccc(-c2nc(N)nc3c2ncc(=O)n3CCN2CCN(c3ccc(Oc4ccccc4)cc3)CC2)o1` reads 605 nM. `Cc1ccc(-c2nc(N)nc3c2ncc(=O)n3CCN2CCN(c3ccc(OC(F)F)cc3F)CC2)o1`: the IC50 in [1] was 21 nM. Same read-out and setting: the result for `COc1ccc(Cn2c(=O)cnc3c(-c4ccc(C)o4)nc(N)nc32)cc1` reads > 10000 nM; that for `Cc1ccc(-c2nc(N)nc3c2ncc(=O)n3CCN2CCN(c3ccc(F)cc3Cl)CC2)o1`, 86.5 nM.

`Cc1ccc(-c2nc(N)nc3c2CCN(Cc2ccccc2)C3)o1`: in [1], the IC50 was > 10000 nM. The same measure, in the same setting: the result for `Cc1ccc(-c2nc(N)nc3c2ncc(=O)n3CCN2CCN(c3ccc(OC(F)F)cc3)CC2)o1` reads 63.7 nM; that for `Cc1ccc(-c2nc(N)nc3c2NC(=O)CN3Cc2ccccc2)o1`, > 10000 nM; that for `COc1ccc(N2CCN(CCn3c(=O)cnc4c(-c5ccc(C)o5)nc(N)nc43)C[C@@H]2C)cc1`, 224 nM. On the same count and under the same terms, the result for `Cc1ccc(-c2nc(N)nc3c2[nH]c(=O)n3Cc2ccccc2)o1` reads 1030 nM; that for `Cc1ccc(-c2nc(N)nc3c2n(C)c(=O)n3Cc2ccccc2)o1`, 2830 nM; that for `COc1ccc(N2CCC(N(C)CCn3c(=O)cnc4c(-c5ccc(C)o5)nc(N)nc43)C2)cc1` (centres undefined), > 10000 nM. As to `Cc1ccc(-c2nc(N)nc3c2ncc(=O)n3CCN2CCN(c3ccc(F)cc3F)CC2)o1`, in data set [1], the IC50 was determined as 8.5 nM. Same read-out and setting: the value for `COc1ccc(N2CCCN(CCn3c(=O)cnc4c(-c5ccc(C)o5)nc(N)nc43)CC2)cc1` was 716 nM; that for `COc1ccc(N2CCN(CCn3c(=O)cnc4c(-c5ccc(C)o5)nc(N)nc43)CC2)cn1` was 29.5 nM; that for `Cc1ccc(-c2nc(N)nc3c2ncc(=O)n3Cc2cccc(C(F)(F)F)c2)o1` was > 10000 nM. Still for that read-out and setting: the result for `Cc1ccc(-c2nc(N)nc3c2ncc(=O)n3CCN2CCC(c3ccccc3)CC2)o1` reads 388 nM; that for `Cc1ccc(-c2nc(N)nc3c2ncc(=O)n3Cc2ccccc2)o1`, 482 nM. Consider `COc1ccc(N(C)C2CCN(CCn3c(=O)cnc4c(-c5ccc(C)o5)nc(N)nc43)C2)cc1` (centres undefined), for which the IC50 in data set [1] was > 10000 nM. The same measure, in the same setting: the value for `COc1cccc(Cn2c(=O)cnc3c(-c4ccc(C)o4)nc(N)nc32)c1` was 476 nM; that for `Cc1ccc(-c2nc(N)nc3c2ncc(=O)n3CC2CCCCC2)o1` was 1880 nM; that for `Cc1ccc(-c2nc(N)nc3c2ncc(=O)n3CC2CCN(c3ccccc3)CC2)o1` was > 10000 nM. On the same count and under the same terms, the result for `Cc1ccc(-c2nc(N)nc3c2ncc(=O)n3CCN2CCN(c3ccccc3OC(F)(F)F)CC2)o1` reads > 10000 nM.
